# What was measured:
# E. faecium DHMC #1 = assay: Antimicrobial susceptibility MIC, E. faecium DHMC #1; assay type: cell-based; details: Enterococcus faecium; E. faecium strain DHMC #1
# Text: (§1) The first set of compounds evaluated were analogs at the C-7 and C-8 positions of the initial quinolone hit DNAC-2 since the other HTS hits identified (data not shown) were substituted at these positions (Table 1). Applicants first explored modification at the C-7 position with a small series of electron-donating and withdrawing substituents. […] However, analogs containing electron donating groups at C-7 including ethyl 7, benzyloxy 8, methoxy 9 and methylthio 10 are weakly active displaying MICs of 320-640 μg/mL indicating electron-donating substituents at C-7 are poorly tolerated. […] The C-8 position was evaluated with trifluoromethyl 4 and trifluoromethoxy 5 containing the optimal C-7 substituents. Both 4 and 5 are equipotent to the corresponding C-7 analogs 2 and 3 indicating some flexibility of the quinolone scaffold.
# (§2) The compounds maintain activity against Staphylococcus epidermidis; however, 31, 111 and 123 all lose considerable potency against Enterococcus faecalis and Enterococcus faecium, which contribute heavily, along with MRSA, to healthcare-associated infections.
# S. aureus NRS71 = assay: Antimicrobial susceptibility MIC, S. aureus NRS71; assay type: cell-based; details: Staphylococcus aureus; S. aureus strain NRS71
# Text: as §1, §2
# Solubility = assay type: physicochemical
# S. epidermidis NIH04003 = assay: Antimicrobial susceptibility MIC, S. epidermidis NIH04003; assay type: cell-based; details: Staphylococcus epidermidis; S. epidermidis strain NIH04003
# Text: as §1, §2
# [1] = system: clinical methicillin-resistant Staphylococcus aureus (MRSA) isolates; assay: MIC against panel of MRSA / staphylococcal strains (text summaries); assay type: cell-based; details: six S. aureus strains of Table 9, read-out: MIC towards all six S. aureus strains
# Text: as §1, §2
# S. aureus MW2 = assay: Antimicrobial susceptibility MIC, S. aureus MW2; assay type: cell-based; details: Staphylococcus aureus; S. aureus strain MW2; read-out: MIC
# Text: as §1, §2
# S. aureus NIH04008 = assay: Antimicrobial susceptibility MIC, S. aureus NIH04008; assay type: cell-based; details: Staphylococcus aureus; S. aureus strain NIH04008; read-out: MIC
# Text: as §1, §2
# E. faecalis DHMC #1 = assay: Antimicrobial susceptibility MIC, E. faecalis DHMC #1; assay type: cell-based; details: Enterococcus faecalis; E. faecalis strain DHMC #1
# Text: as §1, §2
# S. aureus COL = assay: Antimicrobial susceptibility MIC, S. aureus COL; assay type: cell-based; details: Staphylococcus aureus; S. aureus strain COL
# Text: as §1, §2
# [2] = system: erythrocyte membranes (versus S. aureus membranes); assay: in vitro; assay type: cell-based, sheep; details: sheep; read-out: selectivity for S. aureus membranes over erythrocyte membranes
# Method: FIG. 8 illustrates percent hemolysis analysis of sheep erythrocytes. Concentration-dependent hemolysis was measured by monitoring the optical density (OD)540 of PBS-washed sheep erythrocytes. Complete hemolysis (100%) was confirmed by treatment of erythrocytes with Triton X-100. Data points represent the mean±SD of triplicate experiments.
# The macromolecular synthesis assay, TEM, and FM experiments were all consistent with membrane disruption. […] The high membrane selectivity of the 5-aminoquinolin-4-ones in this assay is impressive and is in accordance with the observed therapeutic index (CC50/MIC).
# [3] = system: methicillin-resistant S. aureus (FPR3757); assay: MIC against clinical MRSA strain FPR3757 in Mueller-Hinton broth (CLSI); assay type: cell-based, Staphylococcus aureus; details: Staphylococcus aureus, MRSA, MRSA clinical strain FPR3757, Mueller-Hinton broth, CLSI guidelines, complete inhibition of observable growth; read-out: MIC
# Text: as §1
# S. aureus N325 = assay: Antimicrobial susceptibility MIC, S. aureus N325; assay type: cell-based; details: Staphylococcus aureus; S. aureus strain N325
# Text: as §1, §2
# [4] = system: membrane of gram-positive bacteria; details: previously reported; cited from earlier work
# MRSA = details: HTS hit, previously reported by Applicants; cited from earlier work
# eukaryotic membranes = details: cited from earlier work
Structure (SMILES),MIC (E. faecium DHMC #1),MIC (S. aureus NRS71),solubility (Solubility),MIC (S. epidermidis NIH04003),MIC [1],MIC (S. aureus MW2),MIC (S. aureus NIH04008),MIC (E. faecalis DHMC #1),MIC (S. aureus COL),selectivity ratio [2],MIC [3],MIC (S. aureus N325),membrane effect on gram-positive bacteria [4],MIC against MRSA (MRSA),toxicity towards eukaryotic membranes (eukaryotic membranes)
O=c1cc(C(F)(F)F)[nH]c2cc(C(F)(F)F)cc(Nc3ccc(C(F)(F)F)cn3)c12 [Compound 111],2 µg/mL,< 0.06 µg/mL,low solubility,< 0.06 µg/mL,< 0.06 µg/mL,< 0.06 µg/mL,< 0.06 µg/mL,2 µg/mL,< 0.06 µg/mL,> 500,< 0.06 µg/mL,< 0.06 µg/mL,,,
O=c1cc(C(F)(F)F)[nH]c2c(OC(F)(F)F)cccc12 [DNAC-2],,,,,,,,,,,,,partial membrane depolarization,8 µg/mL,no toxicity towards eukaryotic membranes
